These results are taken from US11565003B2, “Mechanical opening of lipid bilayers by molecular nanomachines” (William Marsh Rice University, priority 2016, dated 2023).

Data set [1] relates to NIH 3T3 cells. Put plainly: Uptake, localization and toxicity of fluorescent nanomachines without UV-light exposure. The format is cell-based, mouse. As to the method:
(§1) Following the synthetic bilipid vesicle experiments, nanomechanical action upon live cells was studied using confocal microscopy aided by a super-resolution technique called Phase Modulation Nanoscopy. Applicants used two experimental methods. In the first method (Method A), the molecular motors were loaded into the cell media and the imaging was initiated within 5 minutes to 24 hours. In the second method, (Method B), the molecular motors were loaded into the cell media, incubated for 30 minutes to 24 hours, and then washed three times with fresh molecular motor-free media before imaging.
Applicants first studied the effect of the nanomachines on the cells without UV-light exposure. […] However, due to 1 and 2 having well-pronounced visible fluorescence properties corresponding to the cy5 and BODIPY addends (FIGS. 5A-B and Table 1, respectively), their intracellular uptake, motion or protein/organelle-assisted trafficking are clearly observed. The two luminescent compounds display very different localization patterns.
Applicants undertook a series of control experiments to confirm active molecular motor uptake and suspected endocytosis, using a range of nanomachine loading concentrations (0.10-1.00 μM, Method A) and incubation times of 5-60 minutes at 4° C., which is a temperature of general endocytosis inhibition.

In data set [2] the test system is NIH 3T3 cells. Kind of data set: UV-activated nanomechanical necrosis, live cell confocal microscopy, NIH 3T3. The format is cell-based, mouse. As to conditions: for Time of Full Necrosis / Time of Initial Necrosis / % acceleration for full necrosis: 355 nm UV; for % acceleration for full necrosis: versus UV upon blank cells. As to the method: Following the synthetic bilipid vesicle experiments, nanomechanical action upon live cells was studied using confocal microscopy aided by a super-resolution technique called Phase Modulation Nanoscopy. Applicants used two experimental methods. In the first method (Method A), the molecular motors were loaded into the cell media and the imaging was initiated within 5 minutes to 24 hours. In the second method, (Method B), the molecular motors were loaded into the cell media, incubated for 30 minutes to 24 hours, and then washed three times with fresh molecular motor-free media before imaging. […]
(§2) Microscopy cells were seeded in untreated iBibi 100 μL live cell channels and allowed to grow to 40% to 60% confluence, at 37° C. in 5% CO2. At this stage, the medium was replaced and cells were treated with the studied nanomachines and co-stains as appropriate, with 0.1% DMSO (as detailed above) present in the final imaging medium. For live cell imaging, DMEM/F12 media (10% FBS) lacking phenol red was used from this point onwards. Following incubation, where Method B was used, the channels were washed with live cell imaging media and imaged using a purpose build incubator housing the microscope maintaining 37° C., 5% CO2 and 10% humidity.
(§3) All live cell imaging experiments used either NIH 3T3 mouse skin fibroblast cells, PC-3 cells, a grade 3 human prostate adenocarcinoma, or Chinese hamster ovary cells (CHO). These are all well-studied cell lines with discrete morphological compositions. Each molecular machine was used as a stock solution at 0.10 to 1.00 μM with total dimethyl sulfoxide (DMSO) concentrations not exceeding 0.1% in the final cell media in order to avoid unwanted cell membrane permeabilization, the DMSO being required for solubility of the organic nanomachines. All loading experiments are carried out in a light-suppressed manner and the possibility of induced or accelerated uptake due to interaction between the molecular motors and the applied co-stain has been eliminated using a series of individual and reversed loading experiments.
(§4) All experimental imaging parameters (i.e., laser beam size, confocal pinhole size, laser intensity, line scanning speed, scanning area (field of view, FOV), and line averaging sequences) were kept constant throughout the experiments. The accuracy and errors associated with the establishment of accelerated necrosis are determined based on one dual channel imaging sequence, which takes 15 seconds in total. This imaging sequence has been carefully established using untreated live cells.
Steady state fluorescence images were recorded using a PhMoNa enhanced Leica SP5 II LSCM equipped with a HCX PL APO 63×/1.40 NA LambdaBlue Oil immersion objective. As an initial control experiment to establish the UV-induced cell toxicity threshold, while mitigating voxel exposure and ensuring sufficient laser dwell time, an imaging sequence has been established to monitor cell morphological and physiological changes as a function of time. All experiments used cell-line-determined culture medium containing 0.1% DMSO.
The applied 100 Hz detection sequence was based on a bidirectional dual-channel continuous scanning method where a minimalistic non-damaging visible laser light (458 nm, 0.2 mW) is used in conjunction with the above detailed UV exposure. This is set as a 2 line/scan accumulation parallel acquisition sequence that is recorded as a function of time. Studied channels correspond to transmission images and UV-induced mitochondrial auto-fluorescence detected at 460 to 550 nm. Applicants further confirmed that the effectiveness of monitoring the UV-activated nanomechanical action on live cells using a conventional CW mercury-arc excitation source equipped with an epi-fluorescence setup consisting of a Zeiss Axiovert 200M inverted microscope, as discussed in FIGS. 18A-C. […]

The next data set relates to PC-3 cells. Put plainly: UV-activated nanomechanical necrosis, live cell confocal microscopy, PC-3. The format is cell-based, human. As to conditions: for Time of Full Necrosis / Time of Initial Necrosis / % acceleration for full necrosis: 355 nm UV; for % acceleration for full necrosis: versus UV upon blank cells. As to the method:
as §1
Next, Applicants used the smaller nanomachine, 3. Initial control experiments (blank) were performed without nanomachines being present. UV-induced (355 nm) PC-3 necrosis is not initiated until approximately scan 20 (corresponding to 300 second continuous scanning UV exposure, 400 nJ/voxel total dwell time), characterized by massive disruption and rupture of the mitochondrial network and subsequent well-pronounced auto-fluorescent signal detectable in the nucleoli and nucleus wall (FIG. 7A). This is observable by the nucleoli membrane permeabilization and DNA damage at the onset of necrosis. The UV-induced necrosis reaches final stages at approximately scan 40 (corresponding to 600 seconds) that is consistent with characteristic extracellular membrane rupture and homogenous cytosolic auto-fluorescence, indicating loss of cellular organelle boundaries.
as §2, §3, §4
Steady state fluorescence images were recorded using a PhMoNa enhanced Leica SP5 II LSCM equipped with a HCX PL APO 63×/1.40 NA LambdaBlue Oil immersion objective. As an initial control experiment to establish the UV-induced cell toxicity threshold, while mitigating voxel exposure and ensuring sufficient laser dwell time, an imaging sequence has been established to monitor cell morphological and physiological changes as a function of time. All experiments used cell-line-determined culture medium containing 0.1% DMSO. […]

A further data set concerns HEK293 cells. Kind of data set: Whole cell patch clamp electrophysiology. The format is cell-based, human. As to the method: FIGS. 16A-B show whole-cell patch clamp studies of the dynamic effects of UV-induced molecular mechanical action of compound 3 upon HEK293 cells. Also shown are control studies using compound 3 without UV activation, UV-exposed rotor-free control molecule 5, and no molecular additives x. Compounds 3 and 5 were used at 1.0 μM concentrations. […] Similarly, the rotor-free compound 5, and no molecular additive x, show no inward currents during UV illumination (center two traces). Cells were held at −70 mV in voltage clamp mode and UV exposure began 15 seconds after the start of the recording. Each recording is a biological replicate and all traces are shown (n=4 recordings from different cells for 3+UV; n=3 recordings from different cells for each other condition). […] The white arrows (lower right image) highlight membrane blebbing that appears only in the cells treated with UV-activated compound 3. The scale bar represents 10 μm and is applicable for each micrograph.
The dynamic effects of nanomechanical action upon cellular membranes were then studied through the whole cell patch clamp electrophysiology of human embryonic kidney 293 cells (HEK293) commonly used for electrophysiological interrogation. […] These inward currents were not observed in the absence of UV illumination or during UV illumination of non-rotor-bearing control 5 or UV illumination of untreated cells (FIG. 16A).

The mark [3] stands for this setting: NIH 3T3, Method B (washed three times).
Setting [4] is: PC-3, Method B (washed three times).

Structures are written as SMILES.

Take `CC1=CC(C)=[N+]2C1=C(c1ccccc1C(=O)OCc1cn(CCC#Cc3ccc4c(c3)C(=C3c5c(ccc6ccccc56)C[C@H]3C)c3cc(C#CCCn5cc(COC(=O)c6ccccc6C6=C7C(C)=CC(C)=[N+]7[B-](F)(F)n7c(C)cc(C)c76)nn5)ccc3S4)nn1)c1c(C)cc(C)n1[B-]2(F)F` (racemic) [Compound 2]: the “localized fluorescence at 4° C. (endocytosis inhibition) (in words)” value in the data set with NIH 3T3 cells [1] (NIH 3T3, 0.10-1.00 μM, 5-60 minutes, 4° C.) is on record as “no detectable localized fluorescence”. Further, the “intracellular localization without UV (in words)” value in the data set on NIH 3T3 cells [1] (NIH 3T3, Method A, 0.10-1.00 μM) was “enters the cell and localizes in the mitochondria”. Moreover, in the data set on NIH 3T3 cells [1] (NIH 3T3, Method A, no UV), the “necrosis without UV-light exposure (in words)” value is “do not induce accelerated necrosis”. For the same compound, the “toxicity in the applied time and concentration regimes (in words)” value with NIH 3T3 cells [1] (NIH 3T3, no UV) is given as “non-toxic”. The “Time of Full Necrosis” value with NIH 3T3 cells [2] (NIH 3T3, Method A (no washing)) was determined as 585 s; in the data set with NIH 3T3 cells [2] (setting [3]), 570 s. The “Time of Initial Necrosis” value in the data set with NIH 3T3 cells [2] (NIH 3T3, Method A (no washing)) came out at 300 s; with NIH 3T3 cells [2] (setting [3]) it was 300 s. For the same compound, the “% acceleration for full necrosis” value in the data set on NIH 3T3 cells [2] (NIH 3T3, Method A) is recorded as 2.5%; in the data set with NIH 3T3 cells [2] (NIH 3T3, Method B), 5%.
Take `Cc1ccc(S(=O)(=O)OCCC#Cc2ccc3c(c2)C(=C2c4c(ccc5ccccc45)C[C@H]2C)c2cc(C#CCCOS(=O)(=O)c4ccc(C)cc4)ccc2S3)cc1` (racemic) [Compound 4]: the “Time of Full Necrosis” value was determined as 540 s with NIH 3T3 cells [2] (NIH 3T3, Method A (no washing)) and 540 s in the data set on PC-3 cells (PC-3, Method A (no washing)). Besides, the “Time of Initial Necrosis” value is 270 s with NIH 3T3 cells [2] (NIH 3T3, Method A (no washing)) and 270 s with PC-3 cells (PC-3, Method A (no washing)). Further, the “% acceleration for full necrosis” value worked out at 10% with NIH 3T3 cells [2] (NIH 3T3, Method A) and 10% with PC-3 cells (PC-3, Method A).
Regarding `C[C@@H]1CSc2ccc3ccccc3c2C1=C1c2cc(C#CCCO)ccc2Sc2ccc(C#CCCO)cc21` (racemic) [Compound 6, reference compound], the “effect on necrosis upon standardized UV-exposure (in words)” value (“effect” for short) was “no enhanced necrosis” with NIH 3T3 cells [2] (NIH 3T3, Method A) and “no enhanced necrosis” in the data set with PC-3 cells (PC-3, Method A). For the same compound, the “Time of Full Necrosis” value in the data set on NIH 3T3 cells [2] (NIH 3T3, Method A (no washing)) came out at 615 s; in the data set on PC-3 cells (PC-3, Method A (no washing)) it was 600 s. In addition, the “Time of Initial Necrosis” value is 300 s in the data set with NIH 3T3 cells [2] (NIH 3T3, Method A (no washing)) and 300 s with PC-3 cells (PC-3, Method A (no washing)). In addition, the “% acceleration for full necrosis” value with NIH 3T3 cells [2] (NIH 3T3, Method A) is 0%; with PC-3 cells (PC-3, Method A), 0%.
As for `O=c1c2cc(C#CCCO)ccc2sc2ccc(C#CCCO)cc12` [Compound 5, reference compound], in the data set with NIH 3T3 cells [2] (NIH 3T3, Method A), the “effect” value is “no effect on necrosis” and the “% acceleration for full necrosis” value is on record as 0%. Moreover, in the data set on NIH 3T3 cells [2] (NIH 3T3, Method A (no washing)), the “Time of Full Necrosis” value is recorded as 600 s and the “Time of Initial Necrosis” value was 300 s. Further, in the data set on HEK293 cells (HEK293, 1.0 μM, 4 minute recording, no UV), the “membrane currents without UV illumination (in words)” value is listed as “no change in membrane currents”. Moreover, in the data set with HEK293 cells (HEK293, Method B, UV 355 nm, 1.0 μM), the “inward ionic currents during UV illumination (in words)” value is recorded as “not observed”. For the same compound, in the data set on PC-3 cells (PC-3, Method A), the “effect” value is “no effect on necrosis” and the “% acceleration for full necrosis” value is given as 0%. Further, in the data set on PC-3 cells (PC-3, Method A (no washing)), the “Time of Full Necrosis” value is given as 600 s and the “Time of Initial Necrosis” value is recorded as 300 s.
As to `C[C@@H]1Cc2ccc3ccccc3c2C1=C1c2cc(C#CCCn3cc(CCC(=O)N[C@@H](CC(=O)O)C(=O)NCC(=O)N[C@@H](CCC(=O)O)C(=O)N[C@@H](C)C(N)=O)nn3)ccc2Sc2ccc(C#CCCn3cc(CCC(=O)N[C@@H](CC(=O)O)C(=O)NCC(=O)N[C@@H](CCC(=O)O)C(=O)N[C@@H](C)C(N)=O)nn3)cc21` [Compound 7], the “Time of Full Necrosis” value in the data set on NIH 3T3 cells [2] (NIH 3T3, Method A (no washing)) was 390 s; with NIH 3T3 cells [2] (setting [3]), 390 s; in the data set on PC-3 cells (PC-3, Method A (no washing)), 360 s; with PC-3 cells (setting [4]), 390 s. Besides, the “Time of Initial Necrosis” value was 150 s with NIH 3T3 cells [2] (NIH 3T3, Method A (no washing)); 165 s in the data set on NIH 3T3 cells [2] (setting [3]); 165 s with PC-3 cells (PC-3, Method A (no washing)); 180 s with PC-3 cells (setting [4]). Further, the “% acceleration for full necrosis” value in the data set with NIH 3T3 cells [2] (NIH 3T3, Method A) is recorded as 40%; in the data set with NIH 3T3 cells [2] (NIH 3T3, Method B), 40%; in the data set on PC-3 cells (PC-3, Method A), 35%; in the data set with PC-3 cells (PC-3, Method B), 35%. Further, in the data set with PC-3 cells (NIH 3T3 and CHO as non-targeted controls), the “selectivity for targeted PC-3 cells over non-targeted control cells (in words)” value is on record as “No selectivity was observed”.
Take `OCCC#Cc1ccc2c(c1)C(=C1CCc3ccc4ccccc4c31)c1cc(C#CCCO)ccc1S2` [NonMe-3, reference compound]: the “Time of Full Necrosis” value in the data set on PC-3 cells (PC-3, Method A (no washing)) amounted to 540 s. The “Time of Initial Necrosis” value in the data set on PC-3 cells (PC-3, Method A (no washing)) came to 270 s. Also, the “% acceleration for full necrosis” value in the data set on PC-3 cells (PC-3, Method A) is 10%. The “effect” value with PC-3 cells (PC-3, Method A, listed as compound analogous to 3 but without the allylic methyl) was “only slightly faster than the motor-free system”; in the data set on PC-3 cells (PC-3, Method A, listed as demethylated 3), “slowed necrosis”.
